Experimental data published in patent US12662465B2, “EGFR inhibitors” (Blueprint Medicines Corporation, priority 2021, dated 2026).

Key:
EGFR enzyme = target: T1, EGFR enzyme (Homo sapiens, UniProt P00533); test: Biochemical EGFR inhibition assays (Biological Example 1), enzyme form not specified; conditions: Biological Example/Assay 1; read-out: inhibitory activity
T1 construct: From knowledge only, the SignalChem E10-1xx 'G' products are GST-tagged cytoplasmic-domain constructs

EGFR (d746-750) = target: T2, EGFR (d746-750) (Homo sapiens, UniProt P00533, DEL746-750); test: Biochemical EGFR inhibition assay (Caliper mobility shift), EGFR (d746-750); conditions: read-out: Enz EGFR_Exon19-del746-750 IC50
T2 construct: purchased SignalChem E10-122JG

[1] = target: intracellular phosphorylation of EGFR (Tyr1068) in PC-9 cells (Ex19Del) (Homo sapiens, UniProt P00533, DEL746-750); test: PC-9 pEGFR AlphaLISA assay; assay type: cell-based; conditions: 4 hours compound incubation, read-out: Ext pEGFR_PC-9 Ex19Del IC50
EGFR L858R = target: T3, EGFR L858R (Homo sapiens, UniProt P00533, L858R); test: Biochemical EGFR inhibition assay (Caliper mobility shift), EGFR L858R; conditions: read-out: Enz EGFR_L858R IC50
T3 construct: purchased SignalChem E10-122BG

EGFR M+ NSCLC patients = conditions: first line (1L), NSCLC harboring del19 and L858R mutations; cited from earlier work

T3 sequence (P00533 25-1210 L858R): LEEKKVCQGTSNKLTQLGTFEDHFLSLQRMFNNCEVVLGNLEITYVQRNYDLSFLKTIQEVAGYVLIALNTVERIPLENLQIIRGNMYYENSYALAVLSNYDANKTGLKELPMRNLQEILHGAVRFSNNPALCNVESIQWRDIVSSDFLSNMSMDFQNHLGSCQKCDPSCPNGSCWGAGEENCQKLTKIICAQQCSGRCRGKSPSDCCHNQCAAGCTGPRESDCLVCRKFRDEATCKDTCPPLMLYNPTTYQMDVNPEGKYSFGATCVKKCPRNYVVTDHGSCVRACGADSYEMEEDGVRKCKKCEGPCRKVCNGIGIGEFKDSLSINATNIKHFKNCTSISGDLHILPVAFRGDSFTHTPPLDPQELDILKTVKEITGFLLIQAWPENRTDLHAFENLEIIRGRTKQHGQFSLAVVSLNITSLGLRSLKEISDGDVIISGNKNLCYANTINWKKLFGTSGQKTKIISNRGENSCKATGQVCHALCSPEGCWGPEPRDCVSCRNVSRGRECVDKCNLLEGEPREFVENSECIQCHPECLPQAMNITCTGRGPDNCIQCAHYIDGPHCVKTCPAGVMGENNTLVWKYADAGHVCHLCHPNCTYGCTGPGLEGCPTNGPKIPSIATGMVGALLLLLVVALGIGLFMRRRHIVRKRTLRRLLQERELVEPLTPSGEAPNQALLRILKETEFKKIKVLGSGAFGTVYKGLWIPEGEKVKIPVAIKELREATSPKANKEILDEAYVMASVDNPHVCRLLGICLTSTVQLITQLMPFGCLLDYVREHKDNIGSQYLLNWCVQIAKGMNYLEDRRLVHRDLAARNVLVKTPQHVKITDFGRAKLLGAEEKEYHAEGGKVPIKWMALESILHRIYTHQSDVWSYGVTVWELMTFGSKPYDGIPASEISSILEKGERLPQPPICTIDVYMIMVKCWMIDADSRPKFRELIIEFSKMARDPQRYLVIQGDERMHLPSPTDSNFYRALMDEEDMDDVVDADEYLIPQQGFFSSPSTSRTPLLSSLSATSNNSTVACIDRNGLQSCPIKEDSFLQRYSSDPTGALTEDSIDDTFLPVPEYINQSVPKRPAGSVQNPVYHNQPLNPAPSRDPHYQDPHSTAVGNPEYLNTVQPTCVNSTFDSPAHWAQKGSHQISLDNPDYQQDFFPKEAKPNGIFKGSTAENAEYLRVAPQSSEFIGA
T2 sequence (P00533 with tags, fused parts or gaps DEL746-750 limits assumed): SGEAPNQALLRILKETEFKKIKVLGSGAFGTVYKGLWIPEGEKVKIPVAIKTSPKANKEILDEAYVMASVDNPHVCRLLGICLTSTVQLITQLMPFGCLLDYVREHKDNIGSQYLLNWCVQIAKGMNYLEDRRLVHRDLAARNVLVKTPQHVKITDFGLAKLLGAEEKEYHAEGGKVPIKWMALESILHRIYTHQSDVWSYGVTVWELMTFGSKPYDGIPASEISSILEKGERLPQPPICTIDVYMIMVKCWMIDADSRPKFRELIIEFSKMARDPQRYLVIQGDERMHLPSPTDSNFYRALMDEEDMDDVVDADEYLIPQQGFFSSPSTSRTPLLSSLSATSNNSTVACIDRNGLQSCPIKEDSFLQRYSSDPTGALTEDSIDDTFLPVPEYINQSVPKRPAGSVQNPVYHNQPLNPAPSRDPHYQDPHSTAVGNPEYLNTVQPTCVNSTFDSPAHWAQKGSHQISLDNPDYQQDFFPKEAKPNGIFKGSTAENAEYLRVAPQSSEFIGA
Sequence of intracellular phosphorylation of EGFR (Tyr1068) in PC-9 cells (Ex19Del) (P00533 with tags, fused parts or gaps DEL746-750): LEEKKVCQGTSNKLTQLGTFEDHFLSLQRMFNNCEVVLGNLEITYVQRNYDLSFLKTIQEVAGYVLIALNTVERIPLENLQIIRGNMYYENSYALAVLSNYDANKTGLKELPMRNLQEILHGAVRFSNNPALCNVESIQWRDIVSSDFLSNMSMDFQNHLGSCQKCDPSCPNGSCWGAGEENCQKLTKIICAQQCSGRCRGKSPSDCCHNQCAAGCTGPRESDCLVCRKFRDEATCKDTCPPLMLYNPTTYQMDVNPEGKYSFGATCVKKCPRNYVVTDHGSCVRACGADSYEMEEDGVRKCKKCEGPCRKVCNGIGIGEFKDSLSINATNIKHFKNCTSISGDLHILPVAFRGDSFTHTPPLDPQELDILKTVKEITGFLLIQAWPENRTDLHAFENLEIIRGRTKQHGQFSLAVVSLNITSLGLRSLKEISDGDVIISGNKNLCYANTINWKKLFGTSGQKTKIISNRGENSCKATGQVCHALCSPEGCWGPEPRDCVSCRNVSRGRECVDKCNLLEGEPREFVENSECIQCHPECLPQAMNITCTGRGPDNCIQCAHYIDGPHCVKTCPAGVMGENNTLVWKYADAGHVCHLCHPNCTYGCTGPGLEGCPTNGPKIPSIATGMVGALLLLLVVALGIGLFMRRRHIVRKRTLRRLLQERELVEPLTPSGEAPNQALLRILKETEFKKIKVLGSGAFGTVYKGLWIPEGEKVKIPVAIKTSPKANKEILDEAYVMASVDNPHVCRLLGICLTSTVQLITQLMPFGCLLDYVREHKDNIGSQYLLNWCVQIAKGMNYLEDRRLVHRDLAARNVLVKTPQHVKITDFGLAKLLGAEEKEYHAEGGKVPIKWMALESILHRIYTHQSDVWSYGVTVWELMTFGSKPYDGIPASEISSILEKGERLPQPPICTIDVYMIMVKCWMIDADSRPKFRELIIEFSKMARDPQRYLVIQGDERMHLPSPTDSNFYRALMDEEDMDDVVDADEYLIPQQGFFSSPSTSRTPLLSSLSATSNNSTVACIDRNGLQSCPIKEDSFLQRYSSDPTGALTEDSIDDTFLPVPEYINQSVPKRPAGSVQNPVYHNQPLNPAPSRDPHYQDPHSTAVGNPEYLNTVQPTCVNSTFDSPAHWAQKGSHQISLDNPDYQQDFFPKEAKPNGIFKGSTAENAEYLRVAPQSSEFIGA
T1 sequence (P00533 whole entry L858R, form open): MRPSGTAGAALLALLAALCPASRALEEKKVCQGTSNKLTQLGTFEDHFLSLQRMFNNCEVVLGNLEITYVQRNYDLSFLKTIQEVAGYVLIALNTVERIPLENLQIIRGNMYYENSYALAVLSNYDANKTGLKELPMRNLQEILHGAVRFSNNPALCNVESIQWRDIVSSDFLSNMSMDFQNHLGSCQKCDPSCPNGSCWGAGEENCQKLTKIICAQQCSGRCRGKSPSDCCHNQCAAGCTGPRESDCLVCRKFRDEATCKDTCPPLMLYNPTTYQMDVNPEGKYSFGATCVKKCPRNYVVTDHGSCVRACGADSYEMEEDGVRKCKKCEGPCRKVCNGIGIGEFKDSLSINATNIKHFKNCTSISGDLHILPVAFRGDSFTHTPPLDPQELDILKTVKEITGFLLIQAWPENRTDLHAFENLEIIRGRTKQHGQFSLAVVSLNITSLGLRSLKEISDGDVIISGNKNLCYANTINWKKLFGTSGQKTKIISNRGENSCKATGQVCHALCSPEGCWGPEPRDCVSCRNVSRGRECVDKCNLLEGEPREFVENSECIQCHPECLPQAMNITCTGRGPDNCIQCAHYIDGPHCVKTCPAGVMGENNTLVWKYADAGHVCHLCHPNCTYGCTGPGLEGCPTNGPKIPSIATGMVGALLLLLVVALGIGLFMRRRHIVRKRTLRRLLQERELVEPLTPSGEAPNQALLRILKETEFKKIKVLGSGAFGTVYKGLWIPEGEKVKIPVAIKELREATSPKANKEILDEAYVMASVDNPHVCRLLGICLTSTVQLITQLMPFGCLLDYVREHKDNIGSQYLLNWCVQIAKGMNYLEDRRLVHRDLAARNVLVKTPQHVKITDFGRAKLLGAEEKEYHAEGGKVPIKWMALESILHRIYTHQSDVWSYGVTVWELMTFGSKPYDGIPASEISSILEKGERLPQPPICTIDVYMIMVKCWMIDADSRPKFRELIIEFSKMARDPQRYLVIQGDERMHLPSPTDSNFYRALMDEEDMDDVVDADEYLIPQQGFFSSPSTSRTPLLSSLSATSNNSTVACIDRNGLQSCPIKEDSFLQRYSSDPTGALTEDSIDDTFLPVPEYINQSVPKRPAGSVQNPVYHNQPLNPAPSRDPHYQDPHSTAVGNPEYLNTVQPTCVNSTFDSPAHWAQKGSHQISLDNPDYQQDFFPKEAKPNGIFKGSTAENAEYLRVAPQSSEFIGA

In the case of `[2H]c1c(-c2cc(O[C@H](C)CN(C)C)c3c(Nc4ccc5ncccc5c4OC([2H])([2H])[2H])ncnc3c2)cnn1C`, the IC50 (EGFR enzyme) is reported as > 10000 nM.

With `C[C@H](CN(C)C1CC1)Oc1cc(-c2cnn(C)c2)cc2ncnc(Nc3ccc4ncccc4c3F)c12` [Example 114, (R)-5-((1-(cyclopropyl(methyl)amino)propan-2-yl)oxy)-N-(5-fluoroquinolin-6-yl)-7-(1-methyl-1H-pyrazol-4-yl)quinazolin-4-amine] the IC50 (EGFR (d746-750)) was < 10 nM, the IC50 [1] was ≤ 10 nM and the IC50 (EGFR L858R) was < 10 nM.

With `C[C@H](CN(C)C1CCC1)Oc1cc(-c2cnn(C)c2)cc2ncnc(Nc3ccc4ncccc4c3F)c12` [Example 115, (R)-5-((1-(cyclobutyl(methyl)amino)propan-2-yl)oxy)-N-(5-fluoroquinolin-6-yl)-7-(1-methyl-1H-pyrazol-4-yl)quinazolin-4-amine] the IC50 (EGFR (d746-750)) was < 10 nM, the IC50 [1] was ≤ 10 nM and the IC50 (EGFR L858R) was < 10 nM.

With `C[C@H](CN(C)C)Oc1cc(-c2cnn(C)c2)cc2ncnc(Nc3ccc4ncc(O)cc4c3F)c12` [Example 116, (R)-6-((5-((1-(dimethylamino)propan-2-yl)oxy)-7-(1-methyl-1H-pyrazol-4-yl)quinazolin-4-yl)amino)-5-fluoroquinolin-3-ol] the IC50 (EGFR (d746-750)) was < 10 nM, the IC50 [1] was > 50.1 nM and the IC50 (EGFR L858R) was < 10 nM.

With `CCn1cc(-c2cc(OC3CCN(C)CC3)c3c(Nc4ccc5ncccc5c4F)ncnc3c2)c(OC)n1` [Example 117, 7-(1-ethyl-3-methoxy-1H-pyrazol-4-yl)-N-(5-fluoroquinolin-6-yl)-5-((1-methylpiperidin-4-yl)oxy)quinazolin-4-amine] the IC50 (EGFR (d746-750)) was < 10 nM, the IC50 [1] was 10.1 to 50 nM and the IC50 (EGFR L858R) was 10.1 to 50 nM.

With `C[C@H](CN(C)C)Oc1cc(-c2cn(C)nc2OC(F)F)cc2ncnc(Nc3ccc4ncccc4c3F)c12` [Example 118, (R)-7-(3-(difluoromethoxy)-1-methyl-1H-pyrazol-4-yl)-5-((1-(dimethylamino)propan-2-yl)oxy)-N-(5-fluoroquinolin-6-yl)quinazolin-4-amine] the IC50 (EGFR (d746-750)) was < 10 nM, the IC50 [1] was ≤ 10 nM and the IC50 (EGFR L858R) was < 10 nM.

In the case of `C[C@H](CN(C)C)Oc1cc(-c2cnn(C)c2)cc2ncnc(Nc3cc(O)c4ncccc4c3F)c12` [Example 122, (R)-6-((5-((1-(dimethylamino)propan-2-yl)oxy)-7-(1-methyl-1H-pyrazol-4-yl)quinazolin-4-yl)amino)-5-fluoroquinolin-8-ol], the IC50 (EGFR (d746-750)) is reported as < 10 nM, the IC50 [1] is reported as ≤ 10 nM and the IC50 (EGFR L858R) is reported as < 10 nM.

In the case of `C[C@H](CN(C)C)Oc1cc(-c2cnn(C)c2)cc2ncnc(Nc3ccc4nc(O)ccc4c3F)c12` [Example 130, (R)-6-((5-((1-(dimethylamino)propan-2-yl)oxy)-7-(1-methyl-1H-pyrazol-4-yl)quinazolin-4-yl)amino)-5-fluoroquinolin-2-ol], the IC50 (EGFR (d746-750)) is reported as 10.1 to 50 nM, the IC50 [1] is reported as > 50.1 nM and the IC50 (EGFR L858R) is reported as > 50.1 nM.

With `C[C@H](CO)Oc1cc(-c2cnn(C)c2)cc2ncnc(Nc3ccc4ncccc4c3F)c12` [Example 135, (R)-2-((4-((5-fluoroquinolin-6-yl)amino)-7-(1-methyl-1H-pyrazol-4-yl)quinazolin-5-yl)oxy)propan-1-ol] the IC50 (EGFR (d746-750)) was < 10 nM, the IC50 [1] was ≤ 10 nM and the IC50 (EGFR L858R) was < 10 nM.

For `CC(Oc1cc(-c2cnn(C)c2)cc2ncnc(Nc3ccc4ncccc4c3F)c12)C1(N(C)C)COC1` (centres unmarked) [Example 142, 5-(1-(3-(dimethylamino)oxetan-3-yl)ethoxy)-N-(5-fluoroquinolin-6-yl)-7-(1-methyl-1H-pyrazol-4-yl)quinazolin-4-amine], the IC50 (EGFR (d746-750)) was < 10 nM, the IC50 [1] was ≤ 10 nM and the IC50 (EGFR L858R) was < 10 nM.

For `C[C@H](CN(C)C)Oc1cc(C2CC2)cc2ncnc(Nc3ccc4ncccc4c3F)c12` [Example 149, (R)-7-cyclopropyl-5-((1-(dimethylamino)propan-2-yl)oxy)-N-(5-fluoroquinolin-6-yl)quinazolin-4-amine], the IC50 (EGFR (d746-750)) was 10.1 to 50 nM, the IC50 [1] was > 50.1 nM and the IC50 (EGFR L858R) was > 50.1 nM.

In the case of `C[C@H](CN(C)C)Oc1cc(N2CC3CC(C2)N3)cc2ncnc(Nc3ccc4ncccc4c3F)c12` [Example 150, 7-(3,6-diazabicyclo[3.1.1]heptan-3-yl)-5-(((R)-1-(dimethylamino)propan-2-yl)oxy)-N-(5-fluoroquinolin-6-yl)quinazolin-4-amine], the IC50 (EGFR (d746-750)) is reported as > 50.1 nM, the IC50 [1] is reported as > 50.1 nM and the IC50 (EGFR L858R) is reported as > 50.1 nM.

For `CC(=O)N1C2CC1CN(c1cc(O[C@H](C)CN(C)C)c3c(Nc4ccc5ncccc5c4F)ncnc3c1)C2` [Example 151, 1-(3-(5-(((R)-1-(dimethylamino)propan-2-yl)oxy)-4-((5-fluoroquinolin-6-yl)amino)quinazolin-7-yl)-3,6-diazabicyclo[3.1.1]heptan-6-yl)ethan-1-one], the IC50 (EGFR (d746-750)) was 10.1 to 50 nM, the IC50 [1] was > 50.1 nM and the IC50 (EGFR L858R) was > 50.1 nM.

In the case of `C[C@H](CN(C)C)Oc1cc(N2CC3(CNC3)C2)cc2ncnc(Nc3ccc4ncccc4c3F)c12` [Example 152, (R)-5-((1-(dimethylamino)propan-2-yl)oxy)-N-(5-fluoroquinolin-6-yl)-7-(2,6-diazaspiro[3.3]heptan-2-yl)quinazolin-4-amine], the IC50 (EGFR (d746-750)) is reported as < 10 nM, the IC50 [1] is reported as 10.1 to 50 nM and the IC50 (EGFR L858R) is reported as < 10 nM.

With `C[C@H](CN(C)C)Oc1cc(N(C)C)cc2ncnc(Nc3ccc4ncccc4c3F)c12` [Example 153, (R)-5-((1-(dimethylamino)propan-2-yl)oxy)-N4-(5-fluoroquinolin-6-yl)-N7,N7-dimethylquinazoline-4,7-diamine] the IC50 (EGFR (d746-750)) was < 10 nM, the IC50 [1] was ≤ 10 nM and the IC50 (EGFR L858R) was 10.1 to 50 nM.

In the case of `CC(=O)N1CC2(C1)CN(c1cc(O[C@H](C)CN(C)C)c3c(Nc4ccc5ncccc5c4F)ncnc3c1)C2` [Example 154, (R)-1-(6-(5-((1-(dimethylamino)propan-2-yl)oxy)-4-((5-fluoroquinolin-6-yl)amino)quinazolin-7-yl)-2,6-diazaspiro[3.3]heptan-2-yl)ethan-1-one], the IC50 (EGFR (d746-750)) is reported as < 10 nM, the IC50 [1] is reported as ≤ 10 nM and the IC50 (EGFR L858R) is reported as < 10 nM.

With `[2H]c1ccc2c(F)c(Nc3ncnc4cc(-c5cnn(C)c5)cc(O[C@H](C)CN(C)C)c34)ccc2n1` [Example 155, (R)-5-((1-(dimethylamino)propan-2-yl)oxy)-N-(5-fluoroquinolin-6-yl-2-d)-7-(1-methyl-1H-pyrazol-4-yl)quinazolin-4-amine] the IC50 (EGFR (d746-750)) was < 10 nM, the IC50 [1] was ≤ 10 nM and the IC50 (EGFR L858R) was < 10 nM.

For `[2H]c1ccc2cc(Nc3ncnc4cc(-c5cnn(C)c5)cc(O[C@H](C)CN(C)C)c34)ccc2n1` [Example 156, (R)-5-((1-(dimethylamino)propan-2-yl)oxy)-7-(1-methyl-1H-pyrazol-4-yl)-N-(quinolin-6-yl-2-d)quinazolin-4-amine], the IC50 (EGFR (d746-750)) was < 10 nM, the IC50 [1] was ≤ 10 nM and the IC50 (EGFR L858R) was < 10 nM.

For `C[C@H](Oc1cc(-c2cnn(C)c2)cc2ncnc(Nc3ccc4ncccc4c3F)c12)[C@@H]1COCCN1` [Example 157, N-(5-fluoroquinolin-6-yl)-7-(1-methyl-1H-pyrazol-4-yl)-5-((S)-1-((S)-morpholin-3-yl)ethoxy)quinazolin-4-amine], the IC50 (EGFR (d746-750)) was > 50.1 nM, the IC50 [1] was > 50.1 nM and the IC50 (EGFR L858R) was > 50.1 nM.

With `[2H]c1c(-c2cnn(C)c2)cc(O[C@H](C)CN(C)C)c2c(Nc3ccc4ncccc4c3F)ncnc12` [Example 158, (R)-5-((1-(dimethylamino)propan-2-yl)oxy)-N-(5-fluoroquinolin-6-yl)-7-(1-methyl-1H-pyrazol-4-yl)quinazolin-8-d-4-amine] the IC50 (EGFR (d746-750)) was < 10 nM, the IC50 [1] was ≤ 10 nM and the IC50 (EGFR L858R) was < 10 nM.

With `[2H]c1c(-c2cc(O[C@H](C)CN(C)C)c3c(Nc4ccc5ncccc5c4F)ncnc3c2)cnn1C` [Example 159, (R)-5-((1-(dimethylamino)propan-2-yl)oxy)-N-(5-fluoroquinolin-6-yl)-7-(1-methyl-1H-pyrazol-4-yl-5-d)quinazolin-4-amine] the IC50 (EGFR (d746-750)) was < 10 nM, the IC50 [1] was ≤ 10 nM and the IC50 (EGFR L858R) was 10.1 to 50 nM.

In the case of `C=CC(=O)Nc1cc(Nc2nccc(-c3cn(C)c4ccccc34)n2)c(OC)cc1N(C)CCN(C)C` [osimertinib], the “progression-free survival (PFS)” value (EGFR M+ NSCLC patients) is given as 18.9 mo.
